Strand notation (5' to 3'): a small letter for the sugar, then the base; units joined by * are phosphorothioate-linked, units joined directly phosphodiester-linked; [ ] holds rarer units or linkages, { } end groups; capitals alone tell only the bases. e = 2'-O-(2-methoxyethyl) (MOE); k = constrained ethyl (cEt); [5mC] = 5-methylcytosine; d = 2'-deoxy (DNA)
How the values were obtained:
Yap1 mRNA [1] = assay: Dose-dependent inhibition of human Yap1 in SNU-449 cells (Example 9, RTS36584); assay type: cell-based; conditions: free uptake; for % UTC (Yap1 mRNA): approximately 48 hours; for IC50: linear regression on a log/linear plot
In short: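 SNU-449 cells (10,000/well) took up modified oligonucleotides by free uptake at a range of doses for about 48 h. Yap1 mRNA was quantified with primer-probe set RTS36584, normalised to RIBOGREEN total RNA and expressed as % untreated control; IC50 from linear regression on log/linear plot.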

[2] = Tolerability in CD-1 mice, plasma chemistry markers (Example 15); assay type: in vivo; conditions: male CD-1 mice, 50 mg/kg s.c. twice a week for four weeks (8 treatments), day 26
Procedure: CD-1 mice were treated with modified oligonucleotides selected from studies described above and evaluated for changes in the levels of various plasma chemistry markers.
(§1) Groups of four male CD-1 mice at 4-5 weeks of age (obtained from Charles River) were injected subcutaneously twice a week for four weeks (for a total of 8 treatments) with 50 mg/kg of modified oligonucleotides. One group of male CD-1 mice was injected with PBS. Mice were euthanized on day 26 post start of treatment (24 hrs following the final administration).

[3] = Tolerability in Balb/c mice, plasma chemistry markers (Example 11); assay type: in vivo; conditions: 50 mg/kg subcutaneously twice a week for four weeks
Procedure: Balb/c mice were treated with modified oligonucleotides selected from studies described above and evaluated for changes in the levels of various plasma chemistry markers.
as §1, with “of” for “of four”, “Balb/c” for “CD-1”, “4-6” for “4-5”, “Taconic)” for “Charles River)”, “hours” for “hrs”

Yap1 mRNA [4] = assay: Dose-dependent inhibition of human Yap1 in A-431 cells (Example 7, 10,000 cells per well, RTS36584); assay type: cell-based; conditions: free uptake, approximately 48 hours; for Yap1 mRNA, % UTC: A-431 cells, 10,000 cells per well
In short: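 A-431 cells at 10,000 per well received modified oligonucleotides by free uptake at several doses. After about 48 hours, Yap1 mRNA was quantified with primer-probe set RTS36584, normalized to RIBOGREEN total RNA and expressed as % untreated control. IC50 came from linear regression on a log/linear plot.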

[5] = Tolerability in Balb/c mice, body and organ weights (Example 11); assay type: in vivo; conditions: 50 mg/kg subcutaneously twice a week for four weeks, end of study
Procedure: as §1, with “of” for “of four”, “Balb/c” for “CD-1”, “4-6” for “4-5”, “Taconic)” for “Charles River)”, “hours” for “hrs”
Body weights of Balb/c mice were measured at the end of the study, and the average body weight for each group is presented in the table below. Modified oligonucleotides that caused any changes in organ weights outside the expected range for modified oligonucleotides were excluded from further studies.

[6] = Tolerability in CD-1 mice, body and organ weights (Example 15); assay type: in vivo; conditions: male CD-1 mice, 50 mg/kg s.c. twice a week for four weeks (8 treatments), end of study (day 26)
Procedure: as §1
Body weights of CD-1 mice were measured at the end of the study, and the average body weight for each group is presented in the table below. Modified oligonucleotides that caused any changes in organ weights outside the expected range for modified oligonucleotides were excluded from further studies.

Yap1 mRNA [7] = assay: Dose-dependent inhibition of human Yap1 in A-431 cells (Example 6, 5,000 cells per well, RTS4814); assay type: cell-based; conditions: Table 54, A-431 cells
In short: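 A-431 cells (5,000/well) took up oligonucleotides by free uptake at various doses for about 48 h. Yap1 mRNA was measured by RT-PCR (RTS4814), normalised to RIBOGREEN total RNA and expressed as % untreated control; IC50 by linear regression on a log/linear plot.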

Yap1 mRNA [8] = assay: Inhibition of human Yap1 mRNA in SNU449 hepatocellular carcinoma xenograft tumors (Example 26); assay type: in vivo; conditions: SNU449 xenografts in NSG mice, 50 mg/kg twice weekly for five days, relative to PBS treated animals
Procedure: A SNU449 hepatocellular carcinoma xenograft tumor model was used to evaluate activity of modified oligonucleotides targeted to human Yap1. Ten million SNU449 cells in 30% matrigel were implanted subcutaneously into the flanks of female NOD Cg-Prkdcscid ll2rgtm1Wjl/SzJ (NSG) mice (from Jackson Laboratory) at 4-6 weeks of age. When tumors reached an average volume of 100 mm^3, approximately two weeks post-implantation, groups of four mice each were administered at 50 mg/kg twice weekly with modified oligonucleotides for five days. Tumors were collected and tested for Yap1 mRNA knockdown by RT-qPCR. Yap1 mRNA levels were measured as previously described using the Human Yap1 primer-probe set RTS4814. Yap1 mRNA levels were normalized to actin-beta content, as measured by primer probe set RTS5002. Results are presented in the tables below as percent control of the amount of Yap1 mRNA relative to PBS treated animals (% control).

**Q.** For “1074461 (kG*kA*kA*dA*dT*dT*dG*dT*d[5mC]*dT*d[5mC]*dA*dT*kG*k[5mC]*k[5mC]) [compound 1074461]”, which “% UTC (Yap1 mRNA)” value (Yap1 mRNA [1]; 31.3 nM) is on record?
**A.** 76 % UTC

**Q.** And the “% UTC (Yap1 mRNA)” value (Yap1 mRNA [1]; 125.0 nM)?
**A.** 37 % UTC

**Q.** And the “% UTC (Yap1 mRNA)” value (Yap1 mRNA [1]; 500.0 nM)?
**A.** 15 % UTC

**Q.** What about the “% UTC (Yap1 mRNA)” value (Yap1 mRNA [1]; 2000.00 nM) of the same substance?
**A.** 5 % UTC

**Q.** And the IC50 (Yap1 mRNA [1])?
**A.** 100 nM

**Q.** And the ALB [2]?
**A.** 2.2 g/dL

**Q.** And the ALT [2]?
**A.** 1563 U/L

**Q.** What about the AST [2] of the same substance?
**A.** 865 U/L

**Q.** For “716454 (antisense k[5mC]*kG*kA*dG*dA*dT*dT*dT*dA*dA*dA*dT*dA*kA*kG*kG) [compound 716454]”, which ALT [3] is on record?
**A.** 39 U/L

**Q.** What about the AST [3] of the same substance?
**A.** 60 U/L

**Q.** What about the BUN [3] of the same substance?
**A.** 14 mg/dL

**Q.** And the TBIL [3]?
**A.** 0.18 mg/dL

**Q.** What about the “Yap1 mRNA, % UTC” value (Yap1 mRNA [4]; 15.6 nM) of the same substance?
**A.** 84 % UTC

**Q.** What about the “Yap1 mRNA, % UTC” value (Yap1 mRNA [4]; 62.5 nM) of the same substance?
**A.** 39 % UTC

**Q.** What about the “Yap1 mRNA, % UTC” value (Yap1 mRNA [4]; 4000.00 nM) of the same substance?
**A.** 6 % UTC

**Q.** What about the IC50 (Yap1 mRNA [4]; A-431 cells, linear regression on log/linear plot) of the same substance?
**A.** 100 nM

**Q.** What about the ALB [2] of the same substance?
**A.** 2.3 g/dL

**Q.** And the ALT [2]?
**A.** 44 U/L

**Q.** And the AST [2]?
**A.** 56 U/L

**Q.** And the Kidney weight [5]?
**A.** 0.42 g

**Q.** And the Liver weight [5]?
**A.** 1.48 g

**Q.** What about the Spleen weight [5] of the same substance?
**A.** 0.14 g

**Q.** And the body weight [5]?
**A.** 25 g

**Q.** And the Kidney weight [6]?
**A.** 0.55 g

**Q.** And the Liver weight [6]?
**A.** 2.31 g

**Q.** And the Spleen weight [6]?
**A.** 0.20 g

**Q.** What about the body weight [6] of the same substance?
**A.** 38 g

**Q.** And the IC50 (Yap1 mRNA [7]; Yap1 mRNA, linear regression on a log/linear plot)?
**A.** 2600 nM

**Q.** What about the “% UTC 148 nM” value (Yap1 mRNA [7]; free uptake, 148 nM, approximately 48 hours, RTS4814) of the same substance?
**A.** 91 % UTC

**Q.** And the “% UTC 444 nM” value (Yap1 mRNA [7]; free uptake, 444 nM, approximately 48 hours, RTS4814)?
**A.** 71 % UTC

**Q.** And the “% UTC 1333 nM” value (Yap1 mRNA [7]; free uptake, 1333 nM, approximately 48 hours, RTS4814)?
**A.** 54 % UTC

**Q.** And the “% UTC 4000 nM” value (Yap1 mRNA [7]; free uptake, 4000 nM, approximately 48 hours, RTS4814)?
**A.** 48 % UTC

**Q.** Which results are given for “1198501 (kG*kA*dT*dT*dT*dA*dG*dG*dA*dT*dG*e[5mC]*kA*eT*kG*eG; antisense) [compound 1198501]”?
**A.** % UTC (Yap1 mRNA) (Yap1 mRNA [1]; 31.3 nM): 65 % UTC; % UTC (Yap1 mRNA) (Yap1 mRNA [1]; 125.0 nM): 36 % UTC; % UTC (Yap1 mRNA) (Yap1 mRNA [1]; 500.0 nM): 17 % UTC; % UTC (Yap1 mRNA) (Yap1 mRNA [1]; 2000.00 nM): 11 % UTC; IC50 (Yap1 mRNA [1]): 100 nM; Yap1 mRNA in tumors, % control (Yap1 mRNA [8]): 54 % control

From US11214803B2, “Modulators of YAP1 expression” (Ionis Pharmaceuticals, Inc., priority 2019, dated 2022)
